Reference: PubChem BioAssay (NCI)
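Where inhibition never reached the appropriate level, the endpoint shown equals the highest concentration tested. Otherwise, values were interpolated linearly from a five-concentration, 48-hour dose response in 96-well plates. Abbreviation: GI50, concentration required for 50% inhibition of growth. TGI denotes the concentration required for complete inhibition of growth.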

Tests used:
Experiment in all cases: NCI tumour cell line growth inhibition, 48 h
[1] = test system: MDA-N
[2] = test system: UACC-257 melanoma
[3] = test system: HCC-2998 colon
[4] = test system: HCT-116 colon
[5] = test system: RPMI-8226 leukemia
[6] = test system: 786-0 renal
[7] = test system: MOLT-4 leukemia
[8] = test system: LOX IMVI melanoma
[9] = test system: SK-MEL-28 melanoma
[10] = test system: ACHN renal
[11] = test system: K-562 leukemia
[12] = test system: HL-60(TB) leukemia
[13] = test system: SK-OV-3 ovarian
[14] = test system: CCRF-CEM leukemia
[15] = test system: NCI/ADR-RES ovarian
[16] = test system: PC-3 prostate
[17] = test system: HCT-15 colon
[18] = test system: SF-539 CNS
[19] = test system: OVCAR-5 ovarian
[20] = test system: SF-268 CNS
[21] = test system: U251 CNS
[22] = test system: SN12C renal
[23] = test system: COLO 205 colon
[24] = test system: UO-31 renal
[25] = test system: NCI-H23 lung
[26] = test system: SK-MEL-2 melanoma
[27] = test system: SR leukemia
[28] = test system: HT29 colon
[29] = test system: A498 renal
[30] = test system: RXF 393 renal
[31] = test system: SNB-19 CNS
[32] = test system: SNB-75 CNS
[33] = test system: NCI-H226 lung
[34] = test system: TK-10 renal
[35] = test system: NCI-H460 lung
[36] = test system: OVCAR-8 ovarian
[37] = test system: DU-145 prostate
[38] = test system: SF-295 CNS
[39] = test system: MCF7 breast
[40] = test system: MALME-3M melanoma
[41] = test system: A549 NSCLC
[42] = test system: EKVX NSCLC
[43] = test system: OVCAR-3 ovarian
[44] = test system: IGROV1 ovarian
[45] = test system: HS 578T breast
[46] = test system: HOP-62 NSCLC
[47] = test system: SK-MEL-5 melanoma
[48] = test system: KM12 colon
[49] = test system: T-47D breast
[50] = test system: NCI-H522 lung
[51] = test system: SW-620 colon
[52] = test system: OVCAR-4 ovarian
[53] = test system: CAKI-1 renal
[54] = test system: M14 melanoma
[55] = test system: HOP-92 NSCLC
[56] = test system: MDA-MB-435
[57] = test system: BT-549 breast
[58] = test system: MDA-MB-231 breast
[59] = test system: UACC-62 melanoma

SMILES: CCOC(=O)C(O)(NC(=O)NC(O)(C(=O)OCC)C(F)(F)F)C(F)(F)F (stereo not given)
- TGI [1]: > 100 µM
- TGI [2]: > 100 µM
- TGI [3]: > 100 µM
- TGI [4]: > 100 µM
- TGI [5]: > 100 µM
- TGI [6]: > 100 µM
- TGI [7]: > 100 µM
- TGI [8]: > 100 µM
- TGI [9]: > 100 µM
- TGI [10]: > 100 µM
- TGI [11]: > 100 µM
- TGI [12]: > 100 µM
- TGI [13]: > 100 µM
- TGI [14]: > 100 µM
- TGI [15]: > 100 µM
- TGI [16]: > 100 µM
- TGI [17]: > 100 µM
- TGI [18]: > 100 µM
- TGI [19]: > 100 µM
- TGI [20]: > 100 µM
- TGI [21]: > 100 µM
- TGI [22]: > 100 µM
- TGI [23]: > 100 µM
- TGI [24]: > 100 µM
- TGI [25]: > 100 µM
- TGI [26]: > 100 µM
- TGI [27]: > 100 µM
- TGI [28]: > 100 µM
- TGI [29]: > 100 µM
- TGI [30]: > 100 µM
- TGI [31]: > 100 µM
- TGI [32]: > 100 µM

SMILES: COc1cc(OC)c(C(=O)/C=C/c2cccc(OC(C)=O)c2)cc1CC=C(C)C
- GI50 [33]: 12.8 µM
- TGI [33]: 40.7 µM
- GI50 [2]: 10.4 µM
- TGI [2]: 36.8 µM
- GI50 [3]: 8.87 µM
- TGI [3]: 16.2 µM
- GI50 [4]: 3 µM
- TGI [4]: 9.78 µM
- GI50 [34]: 23.6 µM
- TGI [34]: > 50 µM
- GI50 [35]: 6.57 µM
- TGI [35]: 17.8 µM
- GI50 [5]: 8.94 µM
- TGI [5]: 33.7 µM
- GI50 [6]: 9.85 µM
- TGI [6]: 19.8 µM
- GI50 [7]: 7.64 µM
- TGI [7]: 43.6 µM
- GI50 [8]: 6.29 µM
- TGI [8]: 13.1 µM
- GI50 [9]: 9.52 µM
- TGI [9]: 22.2 µM
- GI50 [36]: 8.38 µM
- TGI [36]: > 50 µM
- GI50 [37]: 6.18 µM
- TGI [37]: 14.6 µM
- GI50 [10]: 10.1 µM
- TGI [10]: 29.2 µM
- GI50 [38]: 11.9 µM
- TGI [38]: > 50 µM
- GI50 [11]: 8.56 µM
- TGI [11]: > 50 µM
- GI50 [12]: 13.3 µM
- TGI [12]: > 50 µM
- GI50 [13]: 10.9 µM
- TGI [13]: 28.2 µM
- GI50 [39]: 2.54 µM
- TGI [39]: 44 µM
- GI50 [14]: 7 µM
- TGI [14]: 31 µM
- GI50 [40]: 10.6 µM
- TGI [40]: 33.3 µM
- GI50 [41]: 15.2 µM
- TGI [41]: > 50 µM
- GI50 [15]: 7.62 µM
- TGI [15]: 31.3 µM
- GI50 [42]: 30.2 µM
- TGI [42]: > 50 µM
- GI50 [43]: 3.44 µM
- TGI [43]: 12.6 µM
- GI50 [16]: 9.4 µM
- TGI [16]: 44 µM
- GI50 [44]: 15.9 µM
- TGI [44]: > 50 µM
- GI50 [17]: 5.74 µM
- TGI [17]: 14.4 µM
- GI50 [18]: 8.62 µM
- TGI [18]: 16.2 µM
- GI50 [45]: > 50 µM
- TGI [45]: > 50 µM
- GI50 [19]: 11.9 µM
- TGI [19]: 22.5 µM
- GI50 [46]: 10.4 µM
- TGI [46]: 19.6 µM
- GI50 [47]: 6.47 µM
- TGI [47]: 13.3 µM
- GI50 [48]: 7.16 µM
- TGI [48]: 14.8 µM
- GI50 [20]: 7.26 µM
- TGI [20]: 22.7 µM
- GI50 [21]: 6.91 µM
- TGI [21]: 14.7 µM
- GI50 [22]: 9.87 µM
- TGI [22]: > 50 µM
- GI50 [49]: 4.15 µM
- TGI [49]: 16.7 µM
- GI50 [50]: 8.76 µM
- TGI [50]: 22.2 µM
- GI50 [51]: 7.02 µM
- TGI [51]: 18.5 µM
- GI50 [23]: 6.96 µM
- TGI [23]: 14.2 µM
- GI50 [24]: 15.9 µM
- TGI [24]: > 50 µM
- GI50 [52]: 5.73 µM
- TGI [52]: > 50 µM
- GI50 [53]: 23.2 µM
- TGI [53]: > 50 µM
- GI50 [25]: 8.05 µM
- TGI [25]: 18.5 µM
- GI50 [26]: 8.9 µM
- TGI [26]: 35.6 µM
- GI50 [54]: 7.3 µM
- TGI [54]: 18.2 µM
- GI50 [55]: 8.52 µM
- TGI [55]: 39.8 µM
- GI50 [56]: 5.67 µM
- TGI [56]: 31.1 µM
- GI50 [27]: 1.74 µM
- TGI [27]: 16.1 µM
- GI50 [28]: 5.92 µM
- TGI [28]: 17.3 µM
- GI50 [29]: 16.9 µM
- TGI [29]: > 50 µM
- GI50 [30]: 10.2 µM
- TGI [30]: 32.3 µM
- GI50 [57]: 6.28 µM
- TGI [57]: 36.6 µM
- GI50 [31]: 9.2 µM
- TGI [31]: 17.2 µM
- GI50 [58]: 13.1 µM
- TGI [58]: > 50 µM
- GI50 [32]: 4.68 µM
- TGI [32]: 11.8 µM

SMILES: c1ccc(C2=NCCc3cc4c(cc32)OCO4)cc1
- TGI [1]: > 100 µM
- TGI [2]: > 100 µM
- TGI [3]: > 100 µM
- TGI [34]: > 100 µM
- TGI [6]: > 100 µM
- TGI [8]: > 100 µM
- TGI [9]: > 100 µM
- TGI [36]: > 100 µM
- TGI [37]: > 100 µM
- TGI [38]: > 100 µM
- TGI [13]: > 100 µM
- TGI [39]: > 100 µM
- TGI [40]: > 100 µM
- TGI [41]: > 100 µM
- TGI [15]: > 100 µM
- TGI [42]: > 100 µM
- TGI [43]: > 100 µM
- TGI [16]: > 100 µM
- TGI [44]: > 100 µM
- TGI [18]: > 100 µM
- TGI [45]: > 100 µM
- TGI [59]: > 100 µM
- TGI [19]: > 100 µM
- TGI [46]: > 100 µM
- TGI [47]: > 100 µM
- TGI [48]: > 100 µM
- TGI [20]: > 100 µM
- TGI [21]: > 100 µM
- TGI [22]: > 100 µM
- TGI [49]: > 100 µM
- TGI [50]: > 100 µM
- TGI [51]: > 100 µM
- TGI [23]: > 100 µM
- TGI [52]: > 100 µM
- TGI [53]: > 100 µM
- TGI [25]: > 100 µM
- TGI [26]: > 100 µM
- TGI [54]: > 100 µM
- TGI [56]: > 100 µM
- TGI [27]: > 100 µM
- TGI [29]: > 100 µM
- TGI [30]: > 100 µM
- TGI [31]: > 100 µM
- TGI [58]: > 100 µM
